The assay has as its system T1, GCaMP5-expressing T. gondii.
T1 construct: whole extracellular parasites expressing GCaMP5 Ca2+ sensor
Set-up: species or system GCaMP5-expressing Toxoplasma gondii, extracellular; GCaMP5 fluorescence (cytosolic Ca2+) after 100 uM zaprinast in compound-pretreated extracellular parasites, background-subtracted, relative to zaprinast alone. The following applies: 100 uM zaprinast stimulation; 10 min pretreatment; mean of two replicates; 0.23 h. On the procedure:
GCaMP5-expressing parasites were suspended in Ringer's solution at 4 × 10^7 parasites/ml, and 50 μl of parasites were applied to each well of a 96-well plate (Costar, catalog no. 3631). […] Parasites were then treated with 100 μM zaprinast or 0.1% DMSO as a vehicle control and incubated at 37 °C with 5% CO2 for an additional 4 min before measuring fluorescence with excitation and emission wavelengths of 485 and 525 nm, respectively, on a SpectraMax M3 (Molecular Devices). Basal fluorescence, measured from untreated parasites, was subtracted from all values, and results were expressed as -fold change from parasites treated only with zaprinast. Z′ factors were determined from (i) parasites treated with zaprinast versus untreated parasites and (ii) parasites treated with a final concentration of 1 μM Cpd2 or a vehicle control followed by zaprinast, using the formula, Z′ = 1 − 3(σp + σn)/(|μp − μn|), where σp and σn indicate S.D. values of positive and negative controls, and μp and μn indicate the means of positive and negative controls, respectively. […] We predicted that the zaprinast response measured in GCaMP5-expressing parasites could form the basis for a phenotypic screen. Such a screen would benefit from the known importance of Ca^2+ signaling in parasite biology along with the reported success rate of cell-based phenotypic assays. We designed a screen wherein extracellular GCaMP5-expressing parasites were pretreated with compounds for 10 min before stimulation with zaprinast, and parasite fluorescence was measured 4 min later. We expected that compounds that interfered with the zaprinast response would reduce fluorescence. We calculated a Z′-factor for this screen to determine its dynamic range and suitability to high throughput screening. To do so, we compared zaprinast-treated parasites to untreated parasites or those pretreated with the PKG inhibitor Compound 2 (Cpd2) ([55]). […] We obtained the compound libraries published kinase inhibitor sets PKIS1 ([57]) and PKIS2 (unpublished), from GlaxoSmithKline and applied our phenotypic screen to the 823 ATP mimetics represented in these collections (Fig. 2B and supplemental Table S1). The compounds were screened at a single 10 μM dose with two biological replicates.

For the compound `Nc1nccc(-c2ccc3c(N)n[nH]c3c2)n1` [GSK1034945A], the “fold change in fluorescence relative to zaprinast alone” value was determined as 1.107.

On to `CCCN1CCCC(c2ccc(Nc3nc(Nc4cc(F)ccc4C(N)=O)c4cc[nH]c4n3)c(OC)c2)C1` (centres unmarked) [GSK1173862A], for which the “fold change in fluorescence relative to zaprinast alone” value stood at 1.98.

As for `COc1cc(N2CCN(C(C)C)CC2)ccc1Nc1nc(Nc2ccc(F)cc2C(N)=O)c2cc[nH]c2n1` [GSK1220512A], the “fold change in fluorescence relative to zaprinast alone” value is 1.812.

In the case of `COc1ccc(Nc2nccc(-c3ccc(NC(=O)c4cc5cc(F)ccc5[nH]4)cc3)n2)cc1` [GSK1229496A], the “fold change in fluorescence relative to zaprinast alone” value is on record as 1.727.

Regarding `NCC(NC(=O)c1cc(-c2ccnc3[nH]ccc23)cs1)c1ccccc1` (centres unmarked) [GSK1229959A], the “fold change in fluorescence relative to zaprinast alone” value came to 0.7412.

Take `NCC(C(=O)Nc1cc(Br)c(-c2ccnc3[nH]ccc23)s1)c1ccccc1` (centres unmarked) [GSK1269851A]: the “fold change in fluorescence relative to zaprinast alone” value is 0.2436.

As for `NCCCC(NC(=O)c1cc(Br)c(-c2ccnc3[nH]ccc23)s1)c1ccccc1` (centres unmarked) [GSK1287544A], the “fold change in fluorescence relative to zaprinast alone” value is 0.7469.

As for `Cc1cccc(Nc2nc(NCCN)ncc2C(N)=O)c1` [GSK1292139B], the “fold change in fluorescence relative to zaprinast alone” value is listed as 0.903.

As to `NCCC(NC(=O)c1cc(Br)c(-c2ccnc3[nH]ccc23)s1)c1ccccc1` (centres unmarked) [GSK1307810A], the “fold change in fluorescence relative to zaprinast alone” value stood at 0.5195.

With `NCC(NCc1ccc(-c2ccnc3[nH]ccc23)s1)c1ccccc1` (centres unmarked) [GSK1321565A], the “fold change in fluorescence relative to zaprinast alone” value is listed as 0.4604.

As to `NC(CNC(=O)c1cc(Br)c(-c2ccnc3[nH]ccc23)s1)c1ccccc1` (centres unmarked) [GSK1322949A], the “fold change in fluorescence relative to zaprinast alone” value was determined as 0.4024.

As for `NCC(NC(=O)c1cc(-c2cccnc2)c(-c2ccnc3[nH]ccc23)s1)c1ccccc1` (centres unmarked) [GSK1323434A], the “fold change in fluorescence relative to zaprinast alone” value is reported as 0.997.

As for `NCC(NC(=O)c1cc(-c2cn[nH]c2)c(-c2ccnc3[nH]ccc23)s1)c1ccccc1` (centres unmarked) [GSK1325775A], the “fold change in fluorescence relative to zaprinast alone” value turned out to be 1.276.

Consider `O=C(Nc1c(F)cccc1F)c1cc(C(=O)c2ccccc2F)c[nH]1` [GSK1326180A], for which the “fold change in fluorescence relative to zaprinast alone” value was determined as 0.8808.

`CCCN1CCC(c2ccc(Nc3nc(Nc4cc(F)ccc4C(N)=O)c4cc[nH]c4n3)c(OC)c2)CC1` [GSK1326255A]: the “fold change in fluorescence relative to zaprinast alone” value was determined as 1.826.

For the compound `COc1ccc(CNC(=O)NC2CCN(c3ccnc(Nc4ccc(F)cc4)n3)C2)cc1` (centres unmarked) [GSK1379706A], the “fold change in fluorescence relative to zaprinast alone” value is 0.6471.

For `N#Cc1cccc(C(=O)NC2CCN(c3ccnc(Nc4ccc(F)cc4)n3)C2)c1` (centres unmarked) [GSK1379708A], the “fold change in fluorescence relative to zaprinast alone” value stood at 1.095.

Consider `CC(C(=O)NC1CCN(c2ccnc(Nc3ccc(F)cc3)n2)C1)c1ccc(Cl)cc1` (centres unmarked) [GSK1379713A], for which the “fold change in fluorescence relative to zaprinast alone” value was determined as 0.7096.

As for `COC(=O)C(Cc1ccccc1)NC(=O)NC1CCN(c2ccnc(Nc3ccc(F)cc3)n2)C1` (centres unmarked) [GSK1379714A], the “fold change in fluorescence relative to zaprinast alone” value is reported as 0.7659.

`CCCc1ccc(S(=O)(=O)NC2CCN(c3ccnc(Nc4ccc(F)cc4)n3)C2)cc1` (centres unmarked) [GSK1379715A]: the “fold change in fluorescence relative to zaprinast alone” value is listed as 0.5743.

With `O=C(NC1CCN(c2ccnc(Nc3ccc(F)cc3)n2)C1)c1cc2ccccc2s1` (centres unmarked) [GSK1379716A], the “fold change in fluorescence relative to zaprinast alone” value was found to be 1.103.

For the compound `Cn1cncc1C(=O)NC1CCN(c2ccnc(Nc3ccc(F)cc3)n2)C1` (centres unmarked) [GSK1379717A], the “fold change in fluorescence relative to zaprinast alone” value was 1.089.

Regarding `Cc1ccc(C)c(NC(=O)NC2CCN(c3ccnc(Nc4ccc(F)cc4)n3)C2)c1` (centres unmarked) [GSK1379720A], the “fold change in fluorescence relative to zaprinast alone” value was found to be 1.268.

Take `COc1cccc(NC(=O)NC2CCN(c3ccnc(Nc4ccc(F)cc4)n3)C2)c1` (centres unmarked) [GSK1379721A]: the “fold change in fluorescence relative to zaprinast alone” value stood at 0.358.

For `O=C(Nc1ccccc1F)NC1CCN(c2ccnc(Nc3ccc(F)cc3)n2)C1` (centres unmarked) [GSK1379722A], the “fold change in fluorescence relative to zaprinast alone” value came to 0.7204.

As to `COc1cccc(CNC(=O)NC2CCN(c3ccnc(Nc4ccc(F)cc4)n3)C2)c1` (centres unmarked) [GSK1379723A], the “fold change in fluorescence relative to zaprinast alone” value is 0.5252.

Regarding `O=C(Nc1ccc2c(c1)OCO2)NC1CCN(c2ccnc(Nc3ccc(F)cc3)n2)C1` (centres unmarked) [GSK1379724A], the “fold change in fluorescence relative to zaprinast alone” value stood at 0.9401.

As for `COC(=O)c1cccc(NC(=O)NC2CCN(c3ccnc(Nc4ccc(F)cc4)n3)C2)c1` (centres unmarked) [GSK1379725A], the “fold change in fluorescence relative to zaprinast alone” value was found to be 0.2001.

As for `COc1ccc(CNC(=O)NC2CCN(c3ccnc(Nc4ccc(OC)cc4)n3)C2)cc1` (centres unmarked) [GSK1379727A], the “fold change in fluorescence relative to zaprinast alone” value was 1.253.

As for `COc1ccc(Nc2nccc(N3CCC(NS(=O)(=O)c4ccc(NC(C)=O)cc4)C3)n2)cc1` (centres unmarked) [GSK1379729A], the “fold change in fluorescence relative to zaprinast alone” value is on record as 1.531.

Take `COc1ccc(Nc2nccc(N3CCC(NC(=O)c4cccc(C#N)c4)C3)n2)cc1` (centres unmarked) [GSK1379730A]: the “fold change in fluorescence relative to zaprinast alone” value is 0.96.

`COc1ccc(Nc2nccc(N3CCC(NC(=O)Nc4cccc(C(C)=O)c4)C3)n2)cc1` (centres unmarked) [GSK1379731A]: the “fold change in fluorescence relative to zaprinast alone” value is recorded as 0.6491.

On to `COc1ccc(Nc2nccc(N3CCC(NC(=O)c4cccc(NC(C)=O)c4)C3)n2)cc1` (centres unmarked) [GSK1379732A], for which the “fold change in fluorescence relative to zaprinast alone” value is recorded as 1.077.

As for `COc1ccc(Nc2nccc(N3CCC(NC(=O)C(C)c4ccc(Cl)cc4)C3)n2)cc1` (centres unmarked) [GSK1379735A], the “fold change in fluorescence relative to zaprinast alone” value came to 0.6825.

For the compound `CCCc1ccc(S(=O)(=O)NC2CCN(c3ccnc(Nc4ccc(OC)cc4)n3)C2)cc1` (centres unmarked) [GSK1379737A], the “fold change in fluorescence relative to zaprinast alone” value stood at 0.6293.

With `COc1ccc(Nc2nccc(N3CCC(NC(=O)c4cc5ccccc5s4)C3)n2)cc1` (centres unmarked) [GSK1379738A], the “fold change in fluorescence relative to zaprinast alone” value is 0.9419.

In the case of `COc1ccc(Nc2nccc(N3CCC(NC(=O)Nc4cc(C)ccc4C)C3)n2)cc1` (centres unmarked) [GSK1379741A], the “fold change in fluorescence relative to zaprinast alone” value came to 1.033.

On to `COc1ccc(Nc2nccc(N3CCC(NC(=O)Nc4cccc(OC)c4)C3)n2)cc1` (centres unmarked) [GSK1379742A], for which the “fold change in fluorescence relative to zaprinast alone” value turned out to be 1.221.

In the case of `COc1ccc(Nc2nccc(N3CCC(NC(=O)Nc4ccc5c(c4)OCO5)C3)n2)cc1` (centres unmarked) [GSK1379745A], the “fold change in fluorescence relative to zaprinast alone” value is on record as 1.223.

`COC(=O)c1cccc(NC(=O)NC2CCN(c3ccnc(Nc4ccc(OC)cc4)n3)C2)c1` (centres unmarked) [GSK1379746A]: the “fold change in fluorescence relative to zaprinast alone” value is 1.123.

As to `COc1cc(Nc2nccc(N3CCC(NC(=O)c4cccc(C#N)c4)C3)n2)cc(OC)c1OC` (centres unmarked) [GSK1379751A], the “fold change in fluorescence relative to zaprinast alone” value is recorded as 1.563.

`COc1cc(Nc2nccc(N3CCC(NC(=O)Nc4cccc(C(C)=O)c4)C3)n2)cc(OC)c1OC` (centres unmarked) [GSK1379753A]: the “fold change in fluorescence relative to zaprinast alone” value came to 1.391.

Take `COc1cc(Nc2nccc(N3CCC(NC(=O)c4cccc(NC(C)=O)c4)C3)n2)cc(OC)c1OC` (centres unmarked) [GSK1379754A]: the “fold change in fluorescence relative to zaprinast alone” value turned out to be 1.271.

In the case of `COc1cc(Nc2nccc(N3CCC(NC(=O)c4cc5ccccc5s4)C3)n2)cc(OC)c1OC` (centres unmarked) [GSK1379760A], the “fold change in fluorescence relative to zaprinast alone” value amounted to 1.279.

On to `COc1cccc(NC(=O)NC2CCN(c3ccnc(Nc4cc(OC)c(OC)c(OC)c4)n3)C2)c1` (centres unmarked) [GSK1379763A], for which the “fold change in fluorescence relative to zaprinast alone” value is recorded as 1.269.

For `COc1cc(Nc2nccc(N3CCC(NC(=O)Nc4ccc5c(c4)OCO5)C3)n2)cc(OC)c1OC` (centres unmarked) [GSK1379766A], the “fold change in fluorescence relative to zaprinast alone” value came to 1.478.

In the case of `COC(=O)c1cccc(NC(=O)NC2CCN(c3ccnc(Nc4cc(OC)c(OC)c(OC)c4)n3)C2)c1` (centres unmarked) [GSK1379767A], the “fold change in fluorescence relative to zaprinast alone” value was 1.23.

For the compound `COc1ccc(CNC(=O)NC2CCN(c3ccnc(Nc4ccc(F)cc4)n3)CC2)cc1` [GSK1379788A], the “fold change in fluorescence relative to zaprinast alone” value worked out at 1.01.

Turning to `O=C(Nc1ccccc1F)NC1CCN(c2ccnc(Nc3ccc(F)cc3)n2)CC1` [GSK1379800A], the “fold change in fluorescence relative to zaprinast alone” value came to 0.9564.

Regarding `COc1ccc(Nc2nccc(N3CCC(NC(=O)C(C)c4ccc(Cl)cc4)CC3)n2)cc1` (centres unmarked) [GSK1379812A], the “fold change in fluorescence relative to zaprinast alone” value is listed as 1.185.

For the compound `COc1cc(Nc2nccc(N3CCC(NS(=O)(=O)c4ccc(NC(C)=O)cc4)CC3)n2)cc(OC)c1OC` [GSK1379825A], the “fold change in fluorescence relative to zaprinast alone” value was determined as 1.055.

Consider `O=C(Nc1ccc2c(c1)OCO2)NC1CCN(c2ccnc(NCc3ccc(F)cc3)n2)CC1` [GSK1379859A], for which the “fold change in fluorescence relative to zaprinast alone” value was 0.7305.

As to `COC(=O)c1cccc(NC(=O)NC2CCN(c3ccnc(NCc4ccc(F)cc4)n3)CC2)c1` [GSK1379860A], the “fold change in fluorescence relative to zaprinast alone” value stood at 0.8716.

(Values after paper PMC4850295, “Using a Genetically Encoded Sensor to Identify Inhibitors of Toxoplasma gondii Ca^2+ Signaling” (The Journal of Biological Chemistry, 2016).)
